{
  "source": "paper PMC3034713",
  "about": "“Targeting Vascular NADPH Oxidase 1 Blocks Tumor Angiogenesis through a PPARα Mediated Mechanism” (PLoS ONE, 2011)",
  "key": {"MAO-B": {"target": "MAO-B (Homo sapiens, UniProt P27338)", "sequence (P27338 whole entry, species assumed)": "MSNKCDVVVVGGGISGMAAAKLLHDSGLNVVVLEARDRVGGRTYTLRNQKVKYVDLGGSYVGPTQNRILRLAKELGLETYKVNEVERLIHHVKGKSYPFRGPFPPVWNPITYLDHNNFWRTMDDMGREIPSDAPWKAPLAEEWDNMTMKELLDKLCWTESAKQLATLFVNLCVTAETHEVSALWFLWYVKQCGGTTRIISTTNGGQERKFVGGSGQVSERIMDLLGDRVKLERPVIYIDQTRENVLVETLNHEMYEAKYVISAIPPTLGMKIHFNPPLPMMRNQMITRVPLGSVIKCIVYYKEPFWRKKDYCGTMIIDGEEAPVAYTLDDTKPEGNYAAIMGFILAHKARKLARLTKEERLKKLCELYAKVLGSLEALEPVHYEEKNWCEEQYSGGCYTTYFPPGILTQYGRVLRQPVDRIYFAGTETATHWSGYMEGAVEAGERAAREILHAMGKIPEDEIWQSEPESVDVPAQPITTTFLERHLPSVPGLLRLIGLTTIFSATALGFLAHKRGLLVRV", "assay": "Pharmacological profiling (Cerep), Table S1"}, "[1]": {"system": "murine and human endothelial cells (MLEC, HUVEC, mouse endothelioma)", "assay": "ROS measurement with DHE in endothelial cells stimulated with VEGF or bFGF", "type": "cell-based", "settings": "10 µM", "procedure": "Endothelial cells were seeded on glass slides and stained with dihydroethidium (DHE). Images were captured with an inverted microscope and analyzed with Metafluor imaging software (MDS Analytical Technologies). Quantification was performed by measuring the fluorescence intensity of over minimum 50 endothelial cells per slide."}, "MLEC": {"system": "MLEC", "assay": "Wound healing assay (endothelial cell migration)", "type": "cell-based, mouse", "procedure": "Wound healing assay was performed as described previously. Briefly, endothelial cells were plated in Matrigel (Becton Dickinson) precoated 96 wells plates. One day after plating the cell monolayer was scratched to make a regular wound. Cells were allowed to migrate overnight. Migration area was then measured and calculated using the Metamorph program (MDS Analytical Technologies)."}, "NOX4": {"target": "T1, NOX4 (Homo sapiens, UniProt Q9NPH5)", "T1 construct": "expressed in transfected cells", "T1 sequence (Q9NPH5 whole entry, species assumed, one chain of several)": "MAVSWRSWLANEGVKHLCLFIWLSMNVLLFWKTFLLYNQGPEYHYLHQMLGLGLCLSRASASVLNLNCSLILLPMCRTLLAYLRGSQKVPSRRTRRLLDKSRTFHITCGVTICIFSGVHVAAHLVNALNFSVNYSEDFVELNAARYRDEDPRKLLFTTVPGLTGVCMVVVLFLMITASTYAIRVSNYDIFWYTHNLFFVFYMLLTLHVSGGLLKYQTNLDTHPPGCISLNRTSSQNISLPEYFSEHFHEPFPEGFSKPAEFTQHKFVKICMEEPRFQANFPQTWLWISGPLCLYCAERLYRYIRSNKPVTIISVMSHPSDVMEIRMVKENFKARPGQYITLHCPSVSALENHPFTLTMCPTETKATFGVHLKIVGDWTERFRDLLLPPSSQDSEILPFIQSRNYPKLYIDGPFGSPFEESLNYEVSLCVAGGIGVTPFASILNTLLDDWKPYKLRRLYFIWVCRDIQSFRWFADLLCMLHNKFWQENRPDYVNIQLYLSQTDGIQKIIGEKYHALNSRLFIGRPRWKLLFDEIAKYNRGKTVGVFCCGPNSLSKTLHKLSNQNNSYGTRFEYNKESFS", "assay": "NOX inhibition in cell free assay, membranes from cells overexpressing NOX4 (Amplex Red ROS)", "type": "biochemical", "settings": "Figure S2", "procedure": "(§1) Membranes from NOX2 expressing PMN cells or from cells overexpressing NOX1 or NOX4 were prepared as previously described. After resuspension in sonication buffer (11% sucrose, 120 mM NaCl, 1 mM EGTA in PBS, pH 7.4 for NOX4-expressing cells) or in relax buffer (10 mM Pipes, 3 mM NaCl, 3.5 mM MgCl2, 0.1 M KCl, pH 7.4), cells were broken by sonication and centrifuged (200 g, 10 min). The supernatant was loaded onto a 17/40% (w/v) discontinuous sucrose gradient and centrifuged (150,000 g for 30 min). Membrane fractions were collected and stored at −80°C. ROS production measurements of membranes expressing different NOX subunits was determined as previously described using the Amplex Red method (Invitrogen)."}, "xanthine oxidase": {"target": "xanthine oxidase (Homo sapiens, UniProt P47989)", "sequence (P47989 whole entry, species assumed)": "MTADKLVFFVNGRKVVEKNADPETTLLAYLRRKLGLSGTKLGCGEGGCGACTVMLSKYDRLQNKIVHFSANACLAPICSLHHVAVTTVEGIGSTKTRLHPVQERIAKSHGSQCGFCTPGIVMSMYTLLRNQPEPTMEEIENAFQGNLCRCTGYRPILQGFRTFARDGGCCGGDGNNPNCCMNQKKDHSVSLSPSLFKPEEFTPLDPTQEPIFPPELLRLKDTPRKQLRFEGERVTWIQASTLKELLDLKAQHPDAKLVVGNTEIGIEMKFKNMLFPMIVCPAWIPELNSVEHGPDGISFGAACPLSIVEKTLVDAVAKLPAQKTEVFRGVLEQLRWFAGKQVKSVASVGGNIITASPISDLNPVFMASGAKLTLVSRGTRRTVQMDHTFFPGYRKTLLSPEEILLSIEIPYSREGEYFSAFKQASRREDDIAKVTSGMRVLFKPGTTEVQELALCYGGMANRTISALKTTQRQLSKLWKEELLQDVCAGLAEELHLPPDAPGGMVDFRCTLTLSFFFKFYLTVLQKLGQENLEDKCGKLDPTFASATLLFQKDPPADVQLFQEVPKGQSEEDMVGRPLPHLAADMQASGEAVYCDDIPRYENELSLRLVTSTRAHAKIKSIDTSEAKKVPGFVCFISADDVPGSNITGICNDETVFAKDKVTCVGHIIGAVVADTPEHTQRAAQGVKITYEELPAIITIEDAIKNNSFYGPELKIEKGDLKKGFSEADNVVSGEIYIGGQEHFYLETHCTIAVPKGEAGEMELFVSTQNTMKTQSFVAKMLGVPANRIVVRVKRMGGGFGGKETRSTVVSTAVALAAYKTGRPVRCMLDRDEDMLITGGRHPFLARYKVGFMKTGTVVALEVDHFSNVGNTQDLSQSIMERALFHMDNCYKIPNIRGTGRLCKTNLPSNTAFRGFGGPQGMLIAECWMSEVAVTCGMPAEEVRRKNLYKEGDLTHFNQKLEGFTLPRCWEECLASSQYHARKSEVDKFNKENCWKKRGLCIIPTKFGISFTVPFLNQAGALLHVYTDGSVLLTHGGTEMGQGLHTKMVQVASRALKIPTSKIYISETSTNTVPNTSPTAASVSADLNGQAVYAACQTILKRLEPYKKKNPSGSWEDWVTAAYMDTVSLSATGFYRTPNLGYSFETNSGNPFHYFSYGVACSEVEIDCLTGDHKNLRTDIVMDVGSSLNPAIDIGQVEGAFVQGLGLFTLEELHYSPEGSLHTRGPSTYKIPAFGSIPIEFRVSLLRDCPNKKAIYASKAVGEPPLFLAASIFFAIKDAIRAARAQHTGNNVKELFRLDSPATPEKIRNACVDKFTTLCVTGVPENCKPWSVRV", "assay": "Pharmacological profiling (Cerep), Table S1"}, "NOX1": {"target": "T2, NOX1 (Homo sapiens, UniProt Q9Y5S8)", "T2 construct": "expressed in transfected cells", "T2 sequence (Q9Y5S8 1-564)": "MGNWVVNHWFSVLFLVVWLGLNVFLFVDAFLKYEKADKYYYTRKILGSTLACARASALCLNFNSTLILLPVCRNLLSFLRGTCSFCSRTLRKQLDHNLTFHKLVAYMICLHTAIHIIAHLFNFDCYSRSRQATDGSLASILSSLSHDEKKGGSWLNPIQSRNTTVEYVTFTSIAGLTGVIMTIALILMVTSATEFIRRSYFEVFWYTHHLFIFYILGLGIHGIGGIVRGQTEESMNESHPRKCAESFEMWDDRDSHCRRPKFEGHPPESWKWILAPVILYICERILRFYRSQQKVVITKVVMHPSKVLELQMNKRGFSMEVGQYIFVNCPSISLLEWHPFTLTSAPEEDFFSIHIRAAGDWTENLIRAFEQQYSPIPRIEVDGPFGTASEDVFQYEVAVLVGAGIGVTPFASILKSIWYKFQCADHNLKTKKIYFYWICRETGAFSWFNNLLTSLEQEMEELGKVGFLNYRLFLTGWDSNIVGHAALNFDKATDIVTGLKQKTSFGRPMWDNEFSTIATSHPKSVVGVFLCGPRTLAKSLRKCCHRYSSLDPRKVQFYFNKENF", "T2 sequence (P13498 2-195 partner limits assumed)": "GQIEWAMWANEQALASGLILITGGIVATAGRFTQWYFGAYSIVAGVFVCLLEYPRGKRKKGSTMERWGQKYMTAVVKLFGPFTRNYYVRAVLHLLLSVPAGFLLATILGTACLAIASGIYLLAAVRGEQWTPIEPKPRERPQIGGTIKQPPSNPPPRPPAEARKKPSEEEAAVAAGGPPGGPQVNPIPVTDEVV", "assay": "NOX inhibition in cell free assay, membranes from cells overexpressing NOX1 (Amplex Red ROS)", "type": "biochemical", "procedure": "as §1"}, "LLC1 [2]": {"system": "LLC1", "assay": "ROS production by tumor cells (DHE substrate)", "type": "cell-based", "settings": "10 μM, 1h", "procedure": "(§2) Supplementary file pone.0014665.s008.tif: Figure S7 Effect of GKT 136901 on tumor cells. a. LLC1 and B16F0 cell proliferation was measured by EdU incorporation and propidium iodide staining of DNA content, 24h after incubation with 10 μM of GKT136901. b. LLC1 apoptosis was measured by AnnexinV/PI staining after 24h of incubation with 10 μM of GKT136901. c. ROS levels produced by LLC1 are inhibited by GKT136901. ROS production was quantified by DHE substrate 1h after incubation with 10 μM of the inhibitor. *** p<0.001 (student t-test). (6.11 MB TIF) Click here for additional data file."}, "LLC1 and B16F0 cells": {"system": "LLC1 and B16F0 cells", "assay": "Tumor cell proliferation (EdU incorporation, propidium iodide)", "type": "cell-based", "settings": "10 μM, 24h", "procedure": "as §2"}, "LLC1 [3]": {"system": "LLC1", "assay": "Tumor cell apoptosis (AnnexinV/PI staining)", "type": "cell-based", "settings": "10 μM, 24h", "procedure": "as §2"}, "LLC1 tumors": {"system": "LLC1 tumors", "assay": "Tumor growth assay, LLC1 injected subcutaneously", "type": "in vivo, mice", "settings": "for tumor vascularization (PECAM-1), vehicle = 100%: 40 mg/kg/day oral for 8 days", "procedure": "5. 10^5 of LLC1 or B16F0 were injected subcutaneously on the back of mice. […] Frozen sections of tumors were stained with anti-PECAM-1 antibody (rat monoclonal, [74])."}, "NOX2": {"target": "T3, NOX2 (Homo sapiens, UniProt P04839)", "T3 construct": "Membranes from NOX2 expressing PMN cells; endogenous in cells; host or cells: PMN cells", "T3 sequence (P04839 2-570 limits assumed)": "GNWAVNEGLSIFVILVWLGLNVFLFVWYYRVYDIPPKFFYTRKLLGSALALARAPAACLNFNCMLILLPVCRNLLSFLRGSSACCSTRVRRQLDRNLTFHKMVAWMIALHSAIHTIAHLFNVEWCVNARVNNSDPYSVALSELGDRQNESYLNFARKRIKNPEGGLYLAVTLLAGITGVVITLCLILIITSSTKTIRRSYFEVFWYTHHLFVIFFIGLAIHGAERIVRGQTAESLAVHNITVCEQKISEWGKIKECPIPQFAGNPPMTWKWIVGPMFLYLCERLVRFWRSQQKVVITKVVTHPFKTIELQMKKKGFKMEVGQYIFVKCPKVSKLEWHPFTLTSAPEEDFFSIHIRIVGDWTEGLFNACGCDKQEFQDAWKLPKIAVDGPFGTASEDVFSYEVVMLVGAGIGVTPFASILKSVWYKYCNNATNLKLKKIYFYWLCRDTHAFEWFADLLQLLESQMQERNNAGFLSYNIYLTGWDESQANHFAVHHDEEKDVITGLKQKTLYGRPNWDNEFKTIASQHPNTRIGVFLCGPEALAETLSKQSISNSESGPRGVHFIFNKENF", "T3 sequence (P13498 2-195 partner limits assumed)": "T2 sequence (P13498 2-195 partner limits assumed)", "assay": "NOX inhibition in cell free assay, membranes from NOX2 expressing PMN cells (Amplex Red ROS)", "type": "biochemical", "procedure": "as §1"}},
  "data": [
    {"molecule": "Cc1c2c(=O)n(-c3ccccc3Cl)[nH]c2cc(=O)n1Cc1ccccn1", "note": "[GKT136901]", "values": [
      {"measurement": "% Inhibition at 10 µM", "setting": "MAO-B", "result": 0, "unit": "%"},
      {"measurement": "ROS induction after VEGF or bFGF stimulation", "setting": "[1]", "result": "did not induce ROS"},
      {"measurement": "endothelial cell migration", "setting": "MLEC; MLEC, 10 µM", "result": "inhibition"},
      {"measurement": "endothelial cell migration or invasion in PPARα-deficient cells", "setting": "MLEC; PPARα-deficient endothelial cells, data not shown", "result": "did not affect"},
      {"measurement": "extent of inhibition of oxidase activity of NOX4", "setting": "NOX4", "result": "completely inhibits"},
      {"measurement": "% Inhibition at 10 µM", "setting": "xanthine oxidase", "result": 5, "unit": "%"},
      {"measurement": "extent of inhibition of oxidase activity of NOX1", "setting": "NOX1; Figure S2", "result": "completely inhibits"},
      {"measurement": "Ki", "setting": "NOX1; cell-free, membranes from NOX1 over-expressing cells", "result": "160 ± 10", "unit": "nM"},
      {"measurement": "ROS levels produced by LLC1", "setting": "LLC1 [2]", "result": "inhibited"},
      {"measurement": "tumor cell proliferation in vitro", "setting": "LLC1 and B16F0 cells", "result": "did not interfere"},
      {"measurement": "tumor cell apoptosis in vitro", "setting": "LLC1 [3]", "result": "did not interfere"},
      {"measurement": "reduction of vascular area (PECAM-1) compared to vehicle", "setting": "LLC1 tumors; LLC1, 40 mg/kg daily oral from one day after injection", "result": "59% ±9.3"},
      {"measurement": "tumor size smaller compared to vehicle-treated mice", "setting": "LLC1 tumors; LLC1, 40 mg/kg daily oral from one day after injection, one week of treatment", "result": "34% ±5.8"},
      {"measurement": "tumor vascularization (PECAM-1), vehicle = 100%", "setting": "LLC1 tumors; LLC1 in PPARα deficient mice", "result": "129% ±23"},
      {"measurement": "tumor vascularization (PECAM-1), vehicle = 100%", "setting": "LLC1 tumors; LLC1 in WT mice", "result": "65% ±13"},
      {"measurement": "reduction of tumor vascularization (PECAM-1), therapeutic treatment", "setting": "LLC1 tumors; established LLC1 tumors, start 8 days after implantation, day 12", "result": "36% ±16"},
      {"measurement": "delay of tumor progression (tumor volume), therapeutic treatment", "setting": "LLC1 tumors; established LLC1 tumors, start 8 days after implantation, GKT136901 40 mg/kg per os, DC101 0.8 mg i.p. every 2 days", "result": "35% ±5.7"},
      {"measurement": "potency on NOX2 relative to NOX1 and NOX4", "setting": "NOX2", "result": "ten-fold lower"},
      {"measurement": "extent of inhibition of oxidase activity of NOX2", "setting": "NOX2; Figure S2", "result": "only a partial effect"},
      {"measurement": "Ki", "setting": "NOX2; cell-free, membranes from NOX2 expressing PMN cells", "result": "1530 ± 90", "unit": "nM"}
    ]}
  ]
}
